{"source": "paper PMC9504208", "about": "“Comprehensive Study of Antiretroviral Drug Permeability at the Cervicovaginal Mucosa via an In Vitro Model” (Pharmaceutics, 2022)", "key": {"[1]": {"system": "HEC-1A barrier model", "test": "Permeability of labelled drug across HEC-1A model on coadministration with a second ARV", "assay_type": "in vitro ADME, human", "details": "labelled drug 10 µM", "description": "All transport experiments were undertaken over a 2-h period (unless stated) at 37 °C in HBSS supplemented with 1% HEPES buffer (Sigma-Aldrich) at pH 7.4 as reported [22]. HBSS was used to prevent the drug from binding to albumin present in cell culture media. All solutions were warmed to 37 °C and experiments were performed on a heated orbital shaker set at 50 RPM. […] Prior to the initiation of the drug transport experiments, TEER was measured. Cell layers were then washed twice with pre-warmed HBSS+1%HEPES transport buffer and equilibrated in the same solution for 30 min at 37 °C. […] The experiment was initiated when either the donor or receiver solutions were added to the respective compartments. Following the addition of donor solution, 20 µL samples were taken immediately from donor and receiver compartments, T = 0 (for assessment of initial concentration and background radioactivity, respectively). Transwells® were then placed on an orbital shaker set at 50 RPM. […] After final sampling, TEER was measured to confirm that there was no disruption to the epithelial barrier during the experimental procedure. Radioactive samples were mixed with 4 mL of scintillation fluid (Fisher Scientific, Waltham, MA, USA) and analysed using a liquid scintillation counter (Beckman Coulter, Brea, CA, USA). […]"}, "[2]": {"test": "Bi-directional permeability (Papp) across HEC-1A dual chamber (Transwell) barrier model", "assay_type": "in vitro ADME", "details": "human, pH 7.4, dapivirine 0.1–10 µM in 1% DMSO, read-out: Absorptive permeability Papp", "experimental": "The apical chambers of 12-well polycarbonate and polyester systems (Corning Costar Corp, Cambridge, UK) were seeded with different densities of HEC-1A cells in 500 µL of the medium while 1500 µL culture medium was added to the basolateral chamber. -Medium in both chambers was changed every 48–72 h."}, "[3]": {"system": "HEC-1A cells", "test": "Cell-associated drug and distribution between apical and basolateral compartments after absorptive permeability assay;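 also: transwell transport run over 2 h at 37 °C, radiolabelled drug quantified by liquid scintillation counting, with insert membranes also counted for mass balance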", "assay_type": "in vitro ADME, human", "description": "(§1) All transport experiments were undertaken over a 2-h period (unless stated) at 37 °C in HBSS supplemented with 1% HEPES buffer (Sigma-Aldrich) at pH 7.4 as reported [22]. HBSS was used to prevent the drug from binding to albumin present in cell culture media. All solutions were warmed to 37 °C and experiments were performed on a heated orbital shaker set at 50 RPM. […] Prior to the initiation of the drug transport experiments, TEER was measured. Cell layers were then washed twice with pre-warmed HBSS+1%HEPES transport buffer and equilibrated in the same solution for 30 min at 37 °C. […] The experiment was initiated when either the donor or receiver solutions were added to the respective compartments. Following the addition of donor solution, 20 µL samples were taken immediately from donor and receiver compartments, T = 0 (for assessment of initial concentration and background radioactivity, respectively). Transwells® were then placed on an orbital shaker set at 50 RPM. Samples, either 200 µL (apical) or 600 µL (basolateral), were taken from the receiver compartments at time points T = 30, T = 60, T = 90 and T = 120 and added to polyethylene liquid scintillation vials. Samples were taken in triplicate and replaced with equivalent volumes of the receiver solution. After final sampling, TEER was measured to confirm that there was no disruption to the epithelial barrier during the experimental procedure. Radioactive samples were mixed with 4 mL of scintillation fluid (Fisher Scientific, Waltham, MA, USA) and analysed using a liquid scintillation counter (Beckman Coulter, Brea, CA, USA). The semipermeable membranes of the Transwell® inserts were cut and also placed into scintillation vials for mass balance measurements."}, "[4]": {"test": "Cell-associated drug and distribution between apical and basolateral compartments after absorptive permeability assay", "assay_type": "in vitro ADME, human", "details": "human, pH 7.4; 0.2% Poloxamer in receiver; read-out: Recovery from the apical compartment", "description": "as §1"}, "[5]": {"details": "ref DrugBank; cited from earlier work"}}, "note": "Where two headings read alike, the source gives them in different places."}
{"smiles": "Cc1cc(C)c(Nc2ccnc(Nc3ccc(C#N)cc3)n2)c(C)c1", "note": "[dapivirine, Dapivirine]", "values": [{"measurement": "Absorptive permeability on coadministration with tenofovir or darunavir", "setting": "[1]", "result": "not affected"}, {"measurement": "Papp A→B at 2 h", "setting": "[2]; 0.2% (w/v) Poloxamer in basolateral receiver", "result": "9.52 to 11.5", "unit": "×10⁻⁶ cm/s"}, {"measurement": "Papp A→B at 2 h", "setting": "[2]; no Poloxamer in receiver", "result": "2.5 to 2.61", "unit": "×10⁻⁶ cm/s"}, {"measurement": "% Drug Distribution Apical", "setting": "[3]; 0.1 μM", "result": "15.04 ± 0.55", "unit": "%"}, {"measurement": "% Drug Distribution Basolateral", "setting": "[3]; 0.1 μM", "result": "2.87 ± 0.26", "unit": "%"}, {"measurement": "% Drug Distribution Cell-Associated", "setting": "[3]; 0.1 μM", "result": "82.10 ± 0.30", "unit": "%"}, {"measurement": "% Drug Distribution Apical", "setting": "[3]; 0.1 μM + Poloxamer", "result": "16.06 ± 3.26", "unit": "%"}, {"measurement": "% Drug Distribution Basolateral", "setting": "[3]; 0.1 μM + Poloxamer", "result": "10.56 ± 1.26", "unit": "%"}, {"measurement": "% Drug Distribution Cell-Associated", "setting": "[3]; 0.1 μM + Poloxamer", "result": "73.37 ± 3.37", "unit": "%"}, {"measurement": "% Drug Distribution Apical", "setting": "[3]; 1 μM", "result": "14.72 ± 0.10", "unit": "%"}, {"measurement": "% Drug Distribution Basolateral", "setting": "[3]; 1 μM", "result": "2.13 ± 0.33", "unit": "%"}, {"measurement": "% Drug Distribution Cell-Associated", "setting": "[3]; 1 μM", "result": "83.15 ± 0.35", "unit": "%"}, {"measurement": "% Drug Distribution Apical", "setting": "[3]; 1 μM + Poloxamer", "result": "16.47 ± 2.86", "unit": "%"}, {"measurement": "% Drug Distribution Basolateral", "setting": "[3]; 1 μM + Poloxamer", "result": "11.01 ± 1.41", "unit": "%"}, {"measurement": "% Drug Distribution Cell-Associated", "setting": "[3]; 1 μM + Poloxamer", "result": "72.51 ± 2.86", "unit": "%"}, {"measurement": "% Drug Distribution Apical", "setting": "[3]; 5 μM", "result": "14.98 ± 0.76", "unit": "%"}, {"measurement": "% Drug Distribution Basolateral", "setting": "[3]; 5 μM", "result": "1.86 ± 0.41", "unit": "%"}, {"measurement": "% Drug Distribution Cell-Associated", "setting": "[3]; 5 μM", "result": "83.16 ± 1.15", "unit": "%"}, {"measurement": "% Drug Distribution Apical", "setting": "[3]; 5 μM + Poloxamer", "result": "17.47± 2.76", "unit": "%"}, {"measurement": "% Drug Distribution Basolateral", "setting": "[3]; 5 μM + Poloxamer", "result": "10.78 ± 1.18", "unit": "%"}, {"measurement": "% Drug Distribution Cell-Associated", "setting": "[3]; 5 μM + Poloxamer", "result": "71.75 ± 2.33", "unit": "%"}, {"measurement": "% Drug Distribution Apical", "setting": "[3]; 10 μM", "result": "14.52 ± 0.45", "unit": "%"}, {"measurement": "% Drug Distribution Basolateral", "setting": "[3]; 10 μM", "result": "2.09 ± 0.18", "unit": "%"}, {"measurement": "% Drug Distribution Cell-Associated", "setting": "[3]; 10 μM", "result": "83.39 ± 0.55", "unit": "%"}, {"measurement": "% Drug Distribution Apical", "setting": "[3]; 10 μM + Poloxamer", "result": "17.59 ± 3.41", "unit": "%"}, {"measurement": "% Drug Distribution Basolateral", "setting": "[3]; 10 μM + Poloxamer", "result": "11.72 ± 1.34", "unit": "%"}, {"measurement": "% Drug Distribution Cell-Associated", "setting": "[3]; 10 μM + Poloxamer", "result": "70.69 ± 2.76", "unit": "%"}, {"measurement": "Recovery from the apical compartment after absorptive permeability assays", "setting": "[3]; % of initial concentration, no Poloxamer", "result": "15–16%"}, {"measurement": "recovery at 2 h", "setting": "[4]", "result": "19 to 21", "unit": "%"}, {"measurement": "logP", "setting": "[5]", "result": 5.6}]}
